Reference: ChEMBL document CHEMBL1201862, “PubChem BioAssay data set” (2004)
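Grown in 96-well plates, cells were treated for 48 hours with each compound at five concentrations. Insufficient inhibition: endpoint recorded as highest concentration tested. Here, GI50 denotes the concentration required for 50% inhibition of growth.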 Activity calls are given as the source filed them. No stated cut-off is given here; in the data, active = GI50 up to about 1.1 µM and inactive = higher.

Experiments:
Test in all cases: DTP human tumour cell line panel, 48 h
786-0 = tested on: 786-0
A549 = tested on: A549
ACHN = tested on: ACHN
BT-549 = tested on: BT-549
CAKI-1 = tested on: CAKI-1
COLO 205 = tested on: COLO 205
EKVX = tested on: EKVX
HCC 2998 = tested on: HCC 2998
HCT-116 = tested on: HCT-116
HCT-15 = tested on: HCT-15
HOP-92 = tested on: HOP-92
HT-29 = tested on: HT-29
Hs-578T = tested on: Hs-578T
IGROV-1 = tested on: IGROV-1
K562 = tested on: K562
KM12 = tested on: KM12
LOX IMVI = tested on: LOX IMVI
M14 = tested on: M14
MCF7 = tested on: MCF7
MDA-MB-231 = tested on: MDA-MB-231
MDA-MB-435 = tested on: MDA-MB-435
MDA-N = tested on: MDA-N
MOLT-4 = tested on: MOLT-4
NCI-H226 = tested on: NCI-H226
NCI-H23 = tested on: NCI-H23
NCI-H460 = tested on: NCI-H460
NCI-H522 = tested on: NCI-H522
NCI/ADR-RES = tested on: NCI/ADR-RES
OVCAR-3 = tested on: OVCAR-3
OVCAR-4 = tested on: OVCAR-4
OVCAR-5 = tested on: OVCAR-5
OVCAR-8 = tested on: OVCAR-8
PC-3 = tested on: PC-3
RPMI-8226 = tested on: RPMI-8226
SF-268 = tested on: SF-268
SF-295 = tested on: SF-295
SK-MEL-28 = tested on: SK-MEL-28
SK-MEL-2 = tested on: SK-MEL-2
SK-MEL-5 = tested on: SK-MEL-5
SK-OV-3 = tested on: SK-OV-3
SN12C = tested on: SN12C
SNB-19 = tested on: SNB-19
SR = tested on: SR
SW-620 = tested on: SW-620
TK-10 = tested on: TK-10
U-251 = tested on: U-251
UACC-257 = tested on: UACC-257
UACC-62 = tested on: UACC-62
UO-31 = tested on: UO-31
A498 = tested on: A498
DU-145 = tested on: DU-145
HL-60 = tested on: HL-60
HOP-62 = tested on: HOP-62
Malme-3M = tested on: Malme-3M
SF-539 = tested on: SF-539
SNB-75 = tested on: SNB-75
CCRF-CEM = tested on: CCRF-CEM
RXF 393 = tested on: RXF 393

`NS(=O)(=O)c1cc(S(N)(=O)=O)c(NC(=O)Nc2ccc(Cl)c(Cl)c2)c(Cl)c1Cl` was tested, and the GI50 (786-0) was > 100 µM (inactive), the GI50 (A549) was > 100 µM (inactive) and the GI50 (ACHN) was > 100 µM (inactive). The GI50 (BT-549) was > 100 µM (inactive), the GI50 (CAKI-1) was > 100 µM (inactive) and the GI50 (COLO 205) was 40.6 µM (inactive). The GI50 (EKVX) was > 100 µM (inactive), the GI50 (HCC 2998) was > 100 µM (inactive) and the GI50 (HCT-116) was > 100 µM (inactive). For the same molecule, the GI50 (HCT-15) was over 100 µM, the GI50 (HOP-92) was 4.18 µM (inactive) and the GI50 (HT-29) was > 100 µM (inactive). The GI50 (Hs-578T) was > 100 µM (inactive), the GI50 (IGROV-1) was > 100 µM (inactive) and the GI50 (K562) was > 100 µM (inactive). The GI50 (KM12) was > 100 µM (inactive), the GI50 (LOX IMVI) was > 100 µM (inactive) and the GI50 (M14) was > 100 µM (inactive). For the same molecule, the GI50 (MCF7) was > 100 µM (inactive), the GI50 (MDA-MB-231) was > 100 µM (inactive) and the GI50 (MDA-MB-435) was > 100 µM (inactive). The GI50 (MDA-N) was > 100 µM (inactive), the GI50 (MOLT-4) was > 100 µM (inactive) and the GI50 (NCI-H226) was 96.2 µM (inactive). The GI50 (NCI-H23) was > 100 µM (inactive), the GI50 (NCI-H460) was > 100 µM (inactive) and the GI50 (NCI-H522) was > 100 µM (inactive). For the same molecule, the GI50 (NCI/ADR-RES) was > 100 µM (inactive), the GI50 (OVCAR-3) was > 100 µM (inactive) and the GI50 (OVCAR-4) was > 100 µM (inactive). For the same molecule, the GI50 (OVCAR-5) was > 100 µM (inactive), the GI50 (OVCAR-8) was > 100 µM (inactive) and the GI50 (PC-3) was > 100 µM (inactive). The GI50 (RPMI-8226) was > 100 µM (inactive), the GI50 (SF-268) was > 100 µM (inactive) and the GI50 (SF-295) was > 100 µM (inactive). For the same molecule, the GI50 (SK-MEL-28) was > 100 µM (inactive), the GI50 (SK-MEL-2) was > 100 µM (inactive) and the GI50 (SK-MEL-5) was > 100 µM (inactive). For the same molecule, the GI50 (SK-OV-3) was > 100 µM (inactive), the GI50 (SN12C) was > 100 µM (inactive) and the GI50 (SNB-19) was > 100 µM (inactive). For the same molecule, the GI50 (SR) was > 100 µM (inactive), the GI50 (SW-620) was > 100 µM (inactive) and the GI50 (TK-10) was > 100 µM (inactive). For the same molecule, the GI50 (U-251) was > 100 µM (inactive), the GI50 (UACC-257) was > 100 µM (inactive) and the GI50 (UACC-62) was > 100 µM (inactive). The GI50 (UO-31) was > 100 µM (inactive).
`COC(=O)c1ccc(Cc2cc(Cc3ccc(C(=O)OC)cc3)cc(Cc3ccc(C(=O)OC)cc3)c2)cc1` was tested, and the GI50 (786-0) was > 25 µM (inactive), the GI50 (A498) was > 25 µM (inactive) and the GI50 (A549) was > 25 µM (inactive). The GI50 (ACHN) was > 25 µM (inactive), the GI50 (BT-549) was > 25 µM (inactive) and the GI50 (DU-145) was > 25 µM (inactive). The GI50 (EKVX) was > 25 µM (inactive), the GI50 (HCC 2998) was > 25 µM (inactive) and the GI50 (HCT-116) was > 25 µM (inactive). For the same molecule, the GI50 (HCT-15) was over 25 µM, the GI50 (HL-60) was > 25 µM (inactive) and the GI50 (HOP-62) was > 25 µM (inactive). For the same molecule, the GI50 (HOP-92) was > 25 µM (inactive), the GI50 (HT-29) was > 25 µM (inactive) and the GI50 (Hs-578T) was > 25 µM (inactive). For the same molecule, the GI50 (IGROV-1) was > 25 µM (inactive), the GI50 (K562) was > 25 µM (inactive) and the GI50 (KM12) was > 25 µM (inactive). The GI50 (LOX IMVI) was > 25 µM (inactive), the GI50 (M14) was > 25 µM (inactive) and the GI50 (MCF7) was > 25 µM (inactive). For the same molecule, the GI50 (MDA-MB-231) was > 25 µM (inactive), the GI50 (MDA-MB-435) was > 25 µM (inactive) and the GI50 (MDA-N) was > 25 µM (inactive). For the same molecule, the GI50 (MOLT-4) was > 25 µM (inactive), the GI50 (Malme-3M) was > 25 µM (inactive) and the GI50 (NCI-H226) was > 25 µM (inactive). The GI50 (NCI-H460) was > 25 µM (inactive), the GI50 (NCI-H522) was > 25 µM (inactive) and the GI50 (NCI/ADR-RES) was > 25 µM (inactive). For the same molecule, the GI50 (OVCAR-3) was > 25 µM (inactive), the GI50 (OVCAR-4) was 16.5 µM (inactive) and the GI50 (OVCAR-5) was > 25 µM (inactive). For the same molecule, the GI50 (OVCAR-8) was > 25 µM (inactive), the GI50 (PC-3) was > 25 µM (inactive) and the GI50 (RPMI-8226) was > 25 µM (inactive). The GI50 (SF-268) was > 25 µM (inactive), the GI50 (SF-295) was > 25 µM (inactive) and the GI50 (SF-539) was > 25 µM (inactive). The GI50 (SK-MEL-28) was > 25 µM (inactive), the GI50 (SK-MEL-2) was > 25 µM (inactive) and the GI50 (SK-OV-3) was > 25 µM (inactive). The GI50 (SN12C) was > 25 µM (inactive), the GI50 (SNB-19) was > 25 µM (inactive) and the GI50 (SNB-75) was > 25 µM (inactive). The GI50 (SR) was > 25 µM (inactive), the GI50 (SW-620) was > 25 µM (inactive) and the GI50 (TK-10) was > 25 µM (inactive). The GI50 (U-251) was > 25 µM (inactive), the GI50 (UACC-257) was > 25 µM (inactive) and the GI50 (UACC-62) was > 25 µM (inactive). For the same molecule, the GI50 (UO-31) was > 25 µM (inactive).
`COC(=O)c1c(O)ccc2c1c1c(n2Cc2ccccc2)C(=O)c2ccccc2C1` was tested, and the GI50 (786-0) was 39.2 µM (inactive), the GI50 (A498) was 64.7 µM (inactive) and the GI50 (A549) was 30.8 µM (inactive). For the same molecule, the GI50 (BT-549) was 58.6 µM (inactive), the GI50 (CAKI-1) was 36.5 µM (inactive) and the GI50 (CCRF-CEM) was 21.1 µM (inactive). For the same molecule, the GI50 (COLO 205) was 15.4 µM (inactive), the GI50 (DU-145) was 99.3 µM (inactive) and the GI50 (HCT-116) was 54.6 µM (inactive). For the same molecule, the GI50 (HCT-15) was 35.1 µM, the GI50 (HL-60) was 12.6 µM (inactive) and the GI50 (HOP-62) was > 100 µM (inactive). The GI50 (HT-29) was 18.4 µM (inactive), the GI50 (Hs-578T) was 86.5 µM (inactive) and the GI50 (IGROV-1) was 40.6 µM (inactive). For the same molecule, the GI50 (K562) was 2.84 µM (inactive), the GI50 (KM12) was 35.1 µM (inactive) and the GI50 (LOX IMVI) was 26.2 µM (inactive). The GI50 (M14) was 52.4 µM (inactive), the GI50 (MCF7) was 25.4 µM (inactive) and the GI50 (MDA-MB-231) was 39.7 µM (inactive). The GI50 (MDA-MB-435) was 33 µM (inactive), the GI50 (MDA-N) was 43.4 µM (inactive) and the GI50 (MOLT-4) was 3.17 µM (inactive). For the same molecule, the GI50 (Malme-3M) was 69.5 µM (inactive), the GI50 (NCI-H226) was 46.3 µM (inactive) and the GI50 (NCI-H23) was 41.2 µM (inactive). The GI50 (NCI-H460) was 31.9 µM (inactive), the GI50 (NCI/ADR-RES) was 25.8 µM (inactive) and the GI50 (OVCAR-3) was 43 µM (inactive). For the same molecule, the GI50 (OVCAR-4) was 18.6 µM (inactive), the GI50 (OVCAR-5) was 0.0282 µM (active) and the GI50 (OVCAR-8) was 39.7 µM (inactive). For the same molecule, the GI50 (PC-3) was 20 µM (inactive), the GI50 (RPMI-8226) was 12.4 µM (inactive) and the GI50 (RXF 393) was 21.3 µM (inactive). The GI50 (SF-268) was 39 µM (inactive), the GI50 (SF-295) was 27.1 µM (inactive) and the GI50 (SF-539) was 26.2 µM (inactive). For the same molecule, the GI50 (SK-MEL-28) was 44.6 µM (inactive), the GI50 (SK-MEL-2) was 43.6 µM (inactive) and the GI50 (SK-MEL-5) was 50 µM (inactive). For the same molecule, the GI50 (SK-OV-3) was 31.9 µM (inactive), the GI50 (SN12C) was 21.6 µM (inactive) and the GI50 (SNB-19) was 95.5 µM (inactive). The GI50 (SNB-75) was 20.6 µM (inactive), the GI50 (SR) was 7.48 µM (inactive) and the GI50 (SW-620) was 74 µM (inactive). For the same molecule, the GI50 (TK-10) was 65.9 µM (inactive), the GI50 (U-251) was 38 µM (inactive) and the GI50 (UACC-257) was 50.6 µM (inactive). For the same molecule, the GI50 (UACC-62) was 36.9 µM (inactive) and the GI50 (UO-31) was 49.4 µM (inactive).
